The values below come from patent publication US20120270864A1, “2-QUINOLINONE AND 2-QUINOXALINONE-DERIVATIVES AND THEIR USE AS ANTIBACTERIAL AGENTS” (ASTRAZENECA AB, priority 2006, published 2012).

For orientation: inhibition means the relative decrease from the control value, in per cent. Read a low inhibition as a response near the control. By MIC is commonly meant the least concentration at which growth counts as inhibited.

Type in all cases: cell-based
The test system of assay [1] is Staphylococcus aureus (Sau) 516 cells. As to the kind of experiment: Bacterial Susceptibility Testing Methods 2 (microbroth dilution, growth inhibition). Conditions: Staphylococcus aureus. The text has this: Compounds may be tested for antimicrobial activity by susceptibility testing using microbroth dilution methods recommended by CSLI. Compounds may be dissolved in dimethylsulfoxide and tested in 10 doubling dilutions in the susceptibility assays such that the final dimethylsulfoxide concentration in the assay is 2% (v/v). The Staphylococcus aureus (Sau) 516 cells used in the assay may be grown overnight on appropriate agar media and then suspended in the NCCLS-recommended liquid susceptibility-testing media. […] Plates may be incubated under appropriate conditions of atmosphere and temperature and for times according to NCCLS standard methods prior to being read. As used in Table 1 below, the term “inhibition” refers to the percentage of Staphylococcus aureus 516 cell growth that is suppressed (compared to an untreated sample) by the compound of the indicated example number. When tested in the above in-vitro assay, the compounds and salts of the example numbers listed below were tested at the indicated concentrations, providing the indicated inhibitions. In most instances, the highest concentrations at which the compounds were tested was 8 μg/mL. In some instances, however, compounds were tested at concentrations higher than 8 μg/mL, typically when the concentration was first measured in μM and was subsequently converted to μg/mL. In those cases in which compounds were tested at more than one concentration higher than 8 μg/mL, the concentration closest to 8 μg/mL is provided below.

The next assay concerns Staphylococcus aureus. The assay can be described thus: Bacterial Susceptibility Testing Methods 1 (MIC in liquid media, 96 well format). The following applies: lowest drug concentration able to reduce growth by 80% or more, 37° C., 24 hours, read-out: MIC against Staphylococcus aureus. The text has this: Compounds may be tested for antimicrobial activity by susceptibility testing in liquid media in a 96 well format. Compounds may be dissolved in dimethylsulfoxide and tested in 10 doubling dilutions in the susceptibility assays. The organisms used in the assay may be grown overnight on suitable agar media and then suspended in a liquid medium appropriate for the growth of the organism. The suspension may be adjusted to be equal to a 0.5 McFarland and a further 1 in 10 dilution may be made into the same liquid medium to prepare the final organism suspension in 100 μL. Plates may be incubated under appropriate conditions at 37° C. for 24 hours prior to reading. The Minimum Inhibitory Concentration (MIC) was determined as the lowest drug concentration able to reduce growth by 80% or more.
Compounds were evaluated against a panel of Gram-positive species, including Staphylococcus aureus, Streptococcus pneumoniae, Streptococcus pyogenes, and Enterococcus faecium. In addition, compounds were evaluated against a panel of Gram-negative species including Haemophilus influenzae, Escherichia coli and Moraxella catarrhalis.

The subject of a further assay is Escherichia coli. The assay is described as above. The following applies: lowest drug concentration able to reduce growth by 80% or more, 37° C., 24 hours, read-out: MIC against Escherichia coli.

Converted amounts (≈) assume the structure as drawn.

In the case of `N#Cc1ccc2ccc(=O)n(CCN3CC[C@H](NCc4ccc5c(n4)NC(=O)CO5)[C@H](O)C3)c2c1` [Example 2, 1-[2-((3R,4S)-3-Hydroxy-4-{[(3-oxo-3,4-dihydro-2H-pyrido[3,2-b][1,4]oxazin-6-yl)methyl]amino}piperidin-1-yl)ethyl]-2-oxo-1,2-dihydro quino line-7-carbonitrile], the inhibition at 8 µg/mL in assay [1] (Tested Concentration 8 μg/mL, Staphylococcus aureus 516 cell growth suppressed compared to untreated sample) worked out at 100%. The MIC in the assay with Staphylococcus aureus was determined as 0.25 µg/mL (≈ 0.527 µM); with Escherichia coli, 0.5 µg/mL (≈ 1.05 µM).

Consider `N#Cc1ccc2ccc(=O)n(CCN3CC[C@H](NCc4ccc5c(n4)NC(=O)CO5)[C@H](F)C3)c2c1` [Example 52, 1-[2-((3R,4S)-3-fluoro-4-{[(3-oxo-3,4-dihydro-2H-pyrido[3,2-b][1,4]oxazin-6-yl)methyl]amino}piperidin-1-yl)ethyl]-2-oxo-1,2-dihydroquinoline-7-carbonitrile], for which the inhibition at 13 µg/mL in assay [1] (Tested Concentration 13 μg/mL, Staphylococcus aureus 516 cell growth) amounted to 100%.
